Assay results: US20090298820A1, “3-SUBSTITUTED-1H-PYRROLO[2,3-B]PYRIDINE AND 3-SUBSTITUTED-1H-PYRROLO[3,2-B]PYRIDINE COMPOUNDS, THEIR USE AS MTOR KINASE AND PI3 KINASE INHIBITORS, AND THEIR SYNTHESES” (Wyeth, priority 2008, published 2009)
One block for each compound: values may come before it.

Assays:
Type in all cases: biochemical
mTOR = mTOR (Homo sapiens, UniProt P42345); experiment: mTOR enzyme assay (DELFIA format, His6-S6K substrate); conditions: read-out: mTOR Kinase Median IC50
PI3Kα = PI3Kα (Homo sapiens, UniProt P42336); experiment: PI3K-alpha fluorescence polarization assay; conditions: read-out: PI3Kα Median IC50
PI3Kγ = PI3Kγ (Homo sapiens, UniProt P48736); experiment: PI3K-gamma fluorescence polarization assay; conditions: read-out: PI3Kγ Median IC50
Sequence of PI3Kγ (P48736 whole entry, species assumed): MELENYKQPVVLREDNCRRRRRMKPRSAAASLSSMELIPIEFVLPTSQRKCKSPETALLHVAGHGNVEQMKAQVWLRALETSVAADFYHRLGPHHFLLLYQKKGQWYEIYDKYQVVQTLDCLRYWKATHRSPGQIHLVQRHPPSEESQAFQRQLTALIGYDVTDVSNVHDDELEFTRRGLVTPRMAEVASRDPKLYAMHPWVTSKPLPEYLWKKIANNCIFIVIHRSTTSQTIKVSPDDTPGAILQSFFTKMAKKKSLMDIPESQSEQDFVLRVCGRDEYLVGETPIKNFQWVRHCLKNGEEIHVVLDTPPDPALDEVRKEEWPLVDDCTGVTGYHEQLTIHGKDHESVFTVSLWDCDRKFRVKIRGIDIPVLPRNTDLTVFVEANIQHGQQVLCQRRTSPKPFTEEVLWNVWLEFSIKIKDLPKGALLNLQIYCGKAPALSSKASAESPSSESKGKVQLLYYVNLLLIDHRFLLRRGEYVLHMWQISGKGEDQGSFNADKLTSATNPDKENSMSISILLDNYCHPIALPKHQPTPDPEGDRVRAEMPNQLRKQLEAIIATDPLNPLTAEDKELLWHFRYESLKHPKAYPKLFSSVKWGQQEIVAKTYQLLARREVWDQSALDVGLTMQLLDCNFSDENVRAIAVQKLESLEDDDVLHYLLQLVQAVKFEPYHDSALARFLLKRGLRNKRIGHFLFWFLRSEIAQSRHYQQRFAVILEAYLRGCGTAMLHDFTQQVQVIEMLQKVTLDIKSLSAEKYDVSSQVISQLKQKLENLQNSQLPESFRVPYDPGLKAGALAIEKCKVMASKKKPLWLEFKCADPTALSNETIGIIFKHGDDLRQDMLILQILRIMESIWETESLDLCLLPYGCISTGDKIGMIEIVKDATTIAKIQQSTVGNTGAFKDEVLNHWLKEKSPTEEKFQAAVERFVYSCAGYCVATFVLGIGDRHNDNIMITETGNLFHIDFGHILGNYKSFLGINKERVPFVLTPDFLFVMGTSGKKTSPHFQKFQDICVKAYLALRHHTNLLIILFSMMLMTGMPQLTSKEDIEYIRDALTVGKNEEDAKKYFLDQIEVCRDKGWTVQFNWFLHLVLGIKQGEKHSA

Sequence of PI3Kα (P42336 whole entry, species assumed): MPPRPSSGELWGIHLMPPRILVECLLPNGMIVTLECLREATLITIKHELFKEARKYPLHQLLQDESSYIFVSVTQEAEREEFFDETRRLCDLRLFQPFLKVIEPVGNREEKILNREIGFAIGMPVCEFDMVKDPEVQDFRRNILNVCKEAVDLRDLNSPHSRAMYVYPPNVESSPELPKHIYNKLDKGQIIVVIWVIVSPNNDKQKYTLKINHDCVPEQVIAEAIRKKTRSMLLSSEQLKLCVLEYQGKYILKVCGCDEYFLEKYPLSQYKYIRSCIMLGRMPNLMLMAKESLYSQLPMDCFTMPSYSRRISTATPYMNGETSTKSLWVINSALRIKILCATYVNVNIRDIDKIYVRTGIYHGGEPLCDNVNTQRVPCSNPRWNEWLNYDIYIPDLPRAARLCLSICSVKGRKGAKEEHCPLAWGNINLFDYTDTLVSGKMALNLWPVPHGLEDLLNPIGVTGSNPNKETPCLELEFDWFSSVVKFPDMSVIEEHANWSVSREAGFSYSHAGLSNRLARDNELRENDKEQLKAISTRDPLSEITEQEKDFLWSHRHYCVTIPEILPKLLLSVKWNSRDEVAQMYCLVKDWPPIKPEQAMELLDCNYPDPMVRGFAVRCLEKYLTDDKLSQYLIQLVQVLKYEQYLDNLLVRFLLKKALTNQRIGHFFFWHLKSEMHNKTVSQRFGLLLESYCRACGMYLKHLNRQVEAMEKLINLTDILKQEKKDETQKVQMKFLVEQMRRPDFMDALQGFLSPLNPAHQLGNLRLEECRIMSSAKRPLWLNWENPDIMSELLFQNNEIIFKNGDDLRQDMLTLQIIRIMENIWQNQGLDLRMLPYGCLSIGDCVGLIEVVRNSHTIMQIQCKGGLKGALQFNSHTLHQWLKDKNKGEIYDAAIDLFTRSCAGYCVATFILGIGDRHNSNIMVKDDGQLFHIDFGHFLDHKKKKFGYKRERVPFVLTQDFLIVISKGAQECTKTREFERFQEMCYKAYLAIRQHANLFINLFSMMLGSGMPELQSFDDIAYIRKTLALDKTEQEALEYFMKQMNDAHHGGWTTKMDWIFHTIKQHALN
Sequence of PI3Kα (P27986 whole entry partner, species assumed): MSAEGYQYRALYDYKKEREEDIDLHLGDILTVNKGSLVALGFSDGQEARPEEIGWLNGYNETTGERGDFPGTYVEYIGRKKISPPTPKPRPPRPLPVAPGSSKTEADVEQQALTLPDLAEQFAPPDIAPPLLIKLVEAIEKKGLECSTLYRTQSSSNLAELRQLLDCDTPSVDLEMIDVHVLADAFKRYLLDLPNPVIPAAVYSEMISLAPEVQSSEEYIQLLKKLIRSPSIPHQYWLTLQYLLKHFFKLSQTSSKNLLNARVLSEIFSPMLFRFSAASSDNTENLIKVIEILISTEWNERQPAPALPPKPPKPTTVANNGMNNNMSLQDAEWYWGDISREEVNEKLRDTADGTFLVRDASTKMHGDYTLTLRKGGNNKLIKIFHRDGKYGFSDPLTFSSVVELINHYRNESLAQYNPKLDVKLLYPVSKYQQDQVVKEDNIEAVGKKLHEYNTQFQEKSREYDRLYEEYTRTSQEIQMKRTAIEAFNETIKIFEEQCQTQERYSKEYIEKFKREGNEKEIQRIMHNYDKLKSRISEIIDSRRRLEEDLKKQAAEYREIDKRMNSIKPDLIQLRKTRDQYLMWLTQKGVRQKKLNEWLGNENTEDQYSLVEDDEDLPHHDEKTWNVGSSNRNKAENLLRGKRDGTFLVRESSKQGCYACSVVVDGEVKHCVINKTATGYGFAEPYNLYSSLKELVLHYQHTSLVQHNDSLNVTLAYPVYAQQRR

Compound: CN(C)C(=O)C1CCN(c2ccnc3c2c(/C=C2\Oc4ccc(NC(=O)Nc5ccc(N6CCOCC6)cc5)cc4C2=O)cn3C)CC1 [Compound 268, N,N-dimethyl-1-(1-methyl-3-{(Z)-[5-{[(4-morpholin-4-ylphenyl)carbamoyl]amino}-3-oxo-1-benzofuran-2(3H)-ylidene]methyl}-1H-pyrrolo[2,3-b]pyridin-4-yl)piperidine-4-carboxamide]
IC50 (mTOR): 215 nM | IC50 (PI3Kα): 2590 nM | IC50 (PI3Kγ): 6090 nM

Compound: Cn1cc(/C=C2\Oc3ccc(NC(=O)Nc4cccnc4)cc3C2=O)c2c(N3CCC(C(=O)N4CCCCC4)CC3)ccnc21 [Compound 258, 1-[(2Z)-2-({1-methyl-4-[4-(piperidin-1-ylcarbonyl)piperidin-1-yl]-1H-pyrrolo[2,3-b]pyridin-3-yl}methylene)-3-oxo-2,3-dihydro-1-benzofuran-5-yl]-3-pyridin-3-ylurea]
IC50 (mTOR): 47.5 nM | IC50 (PI3Kα): 604 nM | IC50 (PI3Kγ): 206 nM

Compound: CN(C)C(=O)C1CCN(c2ccnc3c2c(/C=C2\Oc4ccc(NC(=O)NC5CC5)cc4C2=O)cn3C)CC1 [Compound 291, 1-{3-[(Z)-{5-[(cyclopropylcarbamoyl)amino]-3-oxo-1-benzofuran-2(3H)-ylidene}methyl]-1-methyl-1H-pyrrolo[2,3-b]pyridin-4-yl}-N,N-dimethylpiperidine-4-carboxamide]
IC50 (mTOR): 59 nM | IC50 (PI3Kα): 2550 nM | IC50 (PI3Kγ): 4680 nM

Compound: Cn1cc(/C=C2\Oc3ccc(NC(=O)Nc4nc5ccccc5n4C)cc3C2=O)c2c(N3CC4CCC(C3)O4)ccnc21 [Compound 289, 1-(1-methyl-1H-benzimidazol-2-yl)-3-[(2Z)-2-{[1-methyl-4-(8-oxa-3-azabicyclo[3.2.1]oct-3-yl)-1H-pyrrolo[2,3-b]pyridin-3-yl]methylidene}-3-oxo-2,3-dihydro-1-benzofuran-5-yl]urea]
IC50 (mTOR): 205 nM | IC50 (PI3Kα): 5710 nM | IC50 (PI3Kγ): > 10000 nM

Compound: CCOC(=O)Nc1ccc2c(c1)C(=O)/C(=C/c1cn(C)c3nccc(N4CCC(C(=O)N(C)C)CC4)c13)O2 [Compound 171, ethyl[(2Z)-2-({4-[4-(dimethylcarbamoyl)piperidin-1-yl]-1-methyl-1H-pyrrolo[2,3-b]pyridin-3-yl}methylidene)-3-oxo-2,3-dihydro-1-benzofuran-5-yl]carbamate]
IC50 (mTOR): 66.5 nM | IC50 (PI3Kα): 2000 nM | IC50 (PI3Kγ): 8740 nM

Compound: CN1CCN(NC(=O)Nc2ccc3c(c2)C(=O)/C(=C/c2cn(C)c4nccc(N5CC6CCC(C5)O6)c24)O3)CC1 [Compound 221, 1-[(2Z)-2-{[1-methyl-4-(8-oxa-3-azabicyclo[3.2.1]oct-3-yl)-1H-pyrrolo[2,3-b]pyridin-3-yl]methylidene}-3-oxo-2,3-dihydro-1-benzofuran-5-yl]-3-(4-methylpiperazin-1-yl)urea]
IC50 (mTOR): 175 nM | IC50 (PI3Kα): 221 nM | IC50 (PI3Kγ): 1010 nM

Compound: 1-cyclopropyl-3-[(2Z)-2-{[1-methyl-4-(8-oxa-3-azabicyclo[3.2.1]oct-3-yl)-1H-pyrrolo[2,3-b]pyridin-3-yl]methylidene}-3-oxo-2,3-dihydro-1-benzofuran-5-yl]urea [Compound 237]
IC50 (mTOR): 23 nM | IC50 (PI3Kα): 289 nM | IC50 (PI3Kγ): 2130 nM

Compound: Cn1cncc1CNC(=O)Nc1ccc2c(c1)C(=O)/C(=C/c1cn(C)c3nccc(N4CC5CCC(C4)O5)c13)O2 [Compound 232, 1-[(1-methyl-1H-imidazol-5-yl)methyl]-3-[(2Z)-2-{[1-methyl-4-(8-oxa-3-azabicyclo[3.2.1]oct-3-yl)-1H-pyrrolo[2,3-b]pyridin-3-yl]methylidene}-3-oxo-2,3-dihydro-1-benzofuran-5-yl]urea]
IC50 (mTOR): 160 nM | IC50 (PI3Kα): 1140 nM | IC50 (PI3Kγ): > 10000 nM

Compound: CC(C)NC(=O)Nc1ccc2c(c1)C(=O)/C(=C/c1cn(C)c3nccc(N4CC5CCC(C4)O5)c13)O2 [Compound 235, 1-(1-methylethyl)-3-[(2Z)-2-{[1-methyl-4-(8-oxa-3-azabicyclo[3.2.1]oct-3-yl)-1H-pyrrolo[2,3-b]pyridin-3-yl]methylidene}-3-oxo-2,3-dihydro-1-benzofuran-5-yl]urea]
IC50 (mTOR): 72 nM | IC50 (PI3Kα): 845 nM | IC50 (PI3Kγ): 2560 nM

Compound: Cn1cc(/C=C2\Oc3ccc(Br)cc3C2=O)c2c(N3CC4CCC(C3)O4)ccnc21 [Compound 59, (2Z)-5-bromo-2-{[1-methyl-4-(8-oxa-3-azabicyclo[3.2.1]oct-3-yl)-1H-pyrrolo[2,3-b]pyridin-3-yl]methylene}-1-benzofuran-3(2H)-one]
IC50 (mTOR): 35.5 nM | IC50 (PI3Kα): 391 nM | IC50 (PI3Kγ): 980 nM

Compound: Cn1cc(/C=C2\Oc3cccc(O)c3C2=O)c2c(-c3ccc(C(=O)Nc4ccc(F)cc4)cc3)ccnc21 [Compound 83, N-(4-fluorophenyl)-4-{3-[(Z)-(4-hydroxy-3-oxo-1-benzofuran-2(3H)-ylidene)methyl]-1-methyl-1H-pyrrolo[2,3-b]pyridin-4-yl}benzamide]
IC50 (mTOR): 9.5 nM | IC50 (PI3Kα): 124 nM | IC50 (PI3Kγ): 951 nM

Compound: CN1CCN(c2ccc(NC(=O)Nc3ccc4c(c3)C(=O)/C(=C/c3cn(C)c5nccc(N6CCC(C(=O)N(C)C)CC6)c35)O4)cn2)CC1 [Compound 230, N,N-dimethyl-1-(1-methyl-3-{(Z)-[5-({[6-(4-methylpiperazin-1-yl)pyridin-3-yl]carbamoyl}amino)-3-oxo-1-benzofuran-2(3H)-ylidene]methyl}-1H-pyrrolo[2,3-b]pyridin-4-yl)piperidine-4-carboxamide]
IC50 (mTOR): 74 nM | IC50 (PI3Kα): 10900 nM | IC50 (PI3Kγ): > 10000 nM

Compound: CN(C(=O)C1CCN(c2ccnc3c2c(C=C2Oc4ccc(NC(=O)Nc5cccnc5)cc4C2=O)cn3C)CC1)[C@H]1CCNC1 [Compound 208, N-methyl-1-[1-methyl-3-({3-oxo-5-[(pyridin-3-ylcarbamoyl)amino]-1-benzofuran-2(3H)-ylidene}methyl)-H-pyrrolo[2,3-b]pyridin-4-yl]-N-[(3S)-pyrrolidin-3-yl]piperidine-4-carboxamide]
IC50 (mTOR): 50 nM | IC50 (PI3Kα): > 10000 nM | IC50 (PI3Kγ): > 10000 nM

These reach a lower IC50 (mTOR). Values come first.

IC50 (mTOR): 0.2 nM | IC50 (PI3Kα): 6 nM | IC50 (PI3Kγ): 44 nM
Compound: Cn1cc(/C=C2\Oc3cc(O)cc(O)c3C2=O)c2c(-c3ccc(C(N)=NO)cc3)ccnc21 [Compound 20, 4-{3-[(Z)-(4,6-dihydroxy-3-oxo-1-benzofuran-2(3H)-ylidene)methyl]-1-methyl-1H-pyrrolo[2,3-b]pyridin-4-yl}-N′-hydroxybenzenecarboximidamide]

IC50 (mTOR): 8.2 nM | IC50 (PI3Kα): 909 nM | IC50 (PI3Kγ): 661 nM
Compound: Cn1cc(/C=C2\Oc3ccc(NC(=O)Nc4cccnc4)cc3C2=O)c2c(N3CCC(C(=O)N4CCCC4)CC3)ccnc21 [Compound 253, 1-[(2Z)-2-({1-methyl-4-[4-(pyrrolidin-1-ylcarbonyl)piperidin-1-yl]-1H-pyrrolo[2,3-b]pyridin-3-yl}methylene)-3-oxo-2,3-dihydro-1-benzofuran-5-yl]-3-pyridin-3-ylurea]

IC50 (mTOR): 8.4 nM | IC50 (PI3Kα): 744 nM | IC50 (PI3Kγ): 1920 nM
Compound: COCCNC(=O)C1CCN(c2ccnc3c2c(/C=C2\Oc4ccc(NC(=O)Nc5cccnc5)cc4C2=O)cn3C)CC1 [Compound 260, N-(2-methoxyethyl)-1-{1-methyl-3-[(Z)-{3-oxo-5-[(pyridin-3-ylcarbamoyl)amino]-1-benzofuran-2(3H)-ylidene}methyl]-1H-pyrrolo[2,3-b]pyridin-4-yl}piperidine-4-carboxamide]

IC50 (mTOR): 0.5 nM | IC50 (PI3Kα): 95 nM | IC50 (PI3Kγ): 93 nM
Compound: Cn1cc(/C=C2\Oc3cc(O)cc(O)c3C2=O)c2c(-c3ccccc3)ccnc21 [Compound 24, (2Z)-4,6-dihydroxy-2-[(1-methyl-4-phenyl-1H-pyrrolo[2,3-b]pyridin-3-yl)methylene]-1-benzofuran-3(2H)-one]

IC50 (mTOR): 1.2 nM | IC50 (PI3Kα): 116 nM | IC50 (PI3Kγ): 79 nM
Compound: Cn1cc(/C=C2\Oc3cc(O)cc(O)c3C2=O)c2c(-c3cccc(Cl)c3)ccnc21 [Compound 13, (2Z)-2-{[4-(3-chlorophenyl)-1-methyl-1H-pyrrolo[2,3-b]pyridin-3-yl]methylene}-4,6-dihydroxy-1-benzofuran-3(2H)-one]

IC50 (mTOR): 0.5 nM | IC50 (PI3Kα): 8 nM | IC50 (PI3Kγ): 50 nM
Compound: COc1ccc(-c2ccnc3c2c(/C=C2\Oc4cc(O)cc(O)c4C2=O)cn3C)cc1S(=O)(=O)N1CCCC1 [Compound 89, (2Z)-4,6-dihydroxy-2-({4-[4-methoxy-3-(pyrrolidin-1-ylsulfonyl)phenyl]-1-methyl-1H-pyrrolo[2,3-b]pyridin-3-yl}methylene)-1-benzofuran-3(2H)-one]

IC50 (mTOR): 7 nM | IC50 (PI3Kα): 4600 nM | IC50 (PI3Kγ): 1250 nM
Compound: CN1CCN(C(=O)C2CCN(c3ccnc4c3c(/C=C3\Oc5ccc(NC(=O)Nc6cccnc6)cc5C3=O)cn4C)CC2)CC1 [Compound 252, 1-{(2Z)-2-[(1-methyl-4-{4-[(4-methylpiperazin-1-yl)carbonyl]piperidin-1-yl}-1H-pyrrolo[2,3-b]pyridin-3-yl)methylidene]-3-oxo-2,3-dihydro-1-benzofuran-5-yl}-3-pyridin-3-ylurea]

IC50 (mTOR): 5.7 nM | IC50 (PI3Kα): 7450 nM | IC50 (PI3Kγ): 5230 nM
Compound: Cn1cc(C=C2Oc3ccc(NC(=O)Nc4cccnc4)cc3C2=O)c2c(N3CCC(C(=O)NC4CCS(=O)(=O)C4)CC3)ccnc21 (stereo not drawn) [Compound 212, N-(1,1-dioxidotetrahydrothiophen-3-yl)-1-[1-methyl-3-({3-oxo-5-[(pyridin-3-ylcarbamoyl)amino]-1-benzofuran-2(3H)-ylidene}methyl)-1H-pyrrolo[2,3-b]pyridin-4-yl]piperidine-4-carboxamide]

IC50 (mTOR): 3.6 nM | IC50 (PI3Kα): 161 nM | IC50 (PI3Kγ): 66 nM
Compound: Cn1cc(/C=C2\Oc3cc(O)cc(O)c3C2=O)c2c(-c3ccc(Oc4ccccc4)cc3)ccnc21 [Compound 87, (2Z)-4,6-dihydroxy-2-{[1-methyl-4-(4-phenoxyphenyl)-1H-pyrrolo[2,3-b]pyridin-3-yl]methylene}-1-benzofuran-3(2H)-one]

IC50 (mTOR): 4 nM | IC50 (PI3Kα): 5900 nM | IC50 (PI3Kγ): > 10000 nM
Compound: Cn1cc(C=C2Oc3ccc(NC(=O)Nc4cccnc4)cc3C2=O)c2c(N3CCC(C(=O)NCC(N)=O)CC3)ccnc21 [Compound 202, N-(2-amino-2-oxoethyl)-1-[1-methyl-3-({3-oxo-5-[(pyridin-3-ylcarbamoyl)amino]-1-benzofuran-2(3H)-ylidene}methyl)-1H-pyrrolo[2,3-b]pyridin-4-yl]piperidine-4-carboxamide]
